Laboratory results from BindingDB's records for doi:10.1016/s0960-894x(02)00371-2 (Neurocrine Biosciences, 2002).

Target: Gonadotropin-releasing hormone receptor (Rattus norvegicus) (UniProt P30969)
Assay: Compound was evaluated in cloned rat Gonadotropin-releasing hormone receptor assay for its ability to displace the binding of [125 I-Tyr, DLeu, NMeLeu, Pro-NEt]GnRH agonist

Sequence of Gonadotropin-releasing hormone receptor (Rattus norvegicus) (P30969 whole entry, looked up): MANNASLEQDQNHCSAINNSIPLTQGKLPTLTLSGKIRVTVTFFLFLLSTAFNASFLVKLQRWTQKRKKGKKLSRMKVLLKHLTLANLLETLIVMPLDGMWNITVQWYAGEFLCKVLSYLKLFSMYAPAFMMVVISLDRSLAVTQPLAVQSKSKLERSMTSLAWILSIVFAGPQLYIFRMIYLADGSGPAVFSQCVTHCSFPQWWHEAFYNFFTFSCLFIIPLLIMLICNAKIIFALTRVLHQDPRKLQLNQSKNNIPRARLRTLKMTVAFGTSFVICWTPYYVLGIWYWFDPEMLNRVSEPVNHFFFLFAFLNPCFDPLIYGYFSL

Work on COc1ccc(-c2nc3n(Cc4ccccc4F)c(C)c(-c4ccc5c(c4)OCO5)c(=O)n3c2CN(C)CCc2ccccn2)cc1 [6-Benzo[1,3]dioxol-5-yl-8-(2-fluoro-benzyl)-2-(4-methoxy-phenyl)-7-methyl-3-{[methyl-(2-pyridin-2-yl-ethyl)-amino]-methyl}-8H-imidazo[1,2-a]pyrimidin-5-one] yielded a Ki of 12 µM.
